Data on 25 molecules can be found in patent publication US11497752B2, “Compounds and uses thereof” (Foghorn Therapeutics Inc., priority 2018, dated 2022).

SMILES strings stand for the structures. Bounds are passed on as bounds.

For one experiment, the target named is BRG-1 (Homo sapiens, UniProt P51532). Put plainly: ATPase catalytic activity of BRG-1 (ADP-Glo in vitro biochemical assay). To be noted: for BRG1 Max % Inhibition: Table 5. In general terms: ADP-Glo turns the ADP formed in a reaction into a luminescent signal.
BRG-1, sequence (P51532 whole entry): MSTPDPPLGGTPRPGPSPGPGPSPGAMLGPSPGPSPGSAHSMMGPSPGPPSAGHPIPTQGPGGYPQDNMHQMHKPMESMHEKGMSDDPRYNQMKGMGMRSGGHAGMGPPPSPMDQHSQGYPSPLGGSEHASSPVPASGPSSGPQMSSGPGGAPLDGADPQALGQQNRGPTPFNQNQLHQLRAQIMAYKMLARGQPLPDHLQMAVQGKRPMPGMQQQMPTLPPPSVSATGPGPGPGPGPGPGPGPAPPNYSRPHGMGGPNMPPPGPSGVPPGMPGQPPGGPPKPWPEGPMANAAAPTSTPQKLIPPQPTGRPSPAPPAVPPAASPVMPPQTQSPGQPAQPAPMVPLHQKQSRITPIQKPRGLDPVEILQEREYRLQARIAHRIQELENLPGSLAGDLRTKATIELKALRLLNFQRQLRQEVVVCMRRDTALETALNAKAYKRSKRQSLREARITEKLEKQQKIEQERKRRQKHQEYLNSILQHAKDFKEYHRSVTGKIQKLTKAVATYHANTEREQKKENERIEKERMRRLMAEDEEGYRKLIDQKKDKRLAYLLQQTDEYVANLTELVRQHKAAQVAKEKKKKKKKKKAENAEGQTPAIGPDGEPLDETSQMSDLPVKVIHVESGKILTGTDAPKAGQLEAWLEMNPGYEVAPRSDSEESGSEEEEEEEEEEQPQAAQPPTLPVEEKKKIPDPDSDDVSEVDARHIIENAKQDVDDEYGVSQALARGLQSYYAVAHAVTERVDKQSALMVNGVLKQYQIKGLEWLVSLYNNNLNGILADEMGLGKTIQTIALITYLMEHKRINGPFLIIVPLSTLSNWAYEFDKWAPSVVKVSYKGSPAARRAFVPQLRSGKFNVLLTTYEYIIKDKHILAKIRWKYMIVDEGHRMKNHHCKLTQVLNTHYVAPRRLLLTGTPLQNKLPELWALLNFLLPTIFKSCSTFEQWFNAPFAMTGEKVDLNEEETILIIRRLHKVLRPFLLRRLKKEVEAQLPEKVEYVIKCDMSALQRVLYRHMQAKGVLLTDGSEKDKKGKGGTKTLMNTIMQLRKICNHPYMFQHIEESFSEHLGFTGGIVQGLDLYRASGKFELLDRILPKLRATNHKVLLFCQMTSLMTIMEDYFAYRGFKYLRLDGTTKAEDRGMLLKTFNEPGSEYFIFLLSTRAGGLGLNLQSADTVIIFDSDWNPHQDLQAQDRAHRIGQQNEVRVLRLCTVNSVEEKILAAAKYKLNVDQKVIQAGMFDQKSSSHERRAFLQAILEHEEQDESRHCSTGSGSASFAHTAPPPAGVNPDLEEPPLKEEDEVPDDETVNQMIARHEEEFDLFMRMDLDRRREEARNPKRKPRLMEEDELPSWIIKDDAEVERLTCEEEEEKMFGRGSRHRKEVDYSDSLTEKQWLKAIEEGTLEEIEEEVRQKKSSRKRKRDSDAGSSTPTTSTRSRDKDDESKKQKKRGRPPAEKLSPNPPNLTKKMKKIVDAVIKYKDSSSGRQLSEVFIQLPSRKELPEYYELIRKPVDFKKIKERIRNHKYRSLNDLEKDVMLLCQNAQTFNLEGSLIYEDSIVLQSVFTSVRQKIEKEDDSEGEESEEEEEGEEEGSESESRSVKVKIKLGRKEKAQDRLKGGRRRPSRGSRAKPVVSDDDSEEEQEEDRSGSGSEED
Another experiment deals with BRM (Homo sapiens, UniProt P51531). Description: ATPase catalytic activity of BRM (ADP-Glo in vitro biochemical assay).
BRM, sequence (P51531 whole entry): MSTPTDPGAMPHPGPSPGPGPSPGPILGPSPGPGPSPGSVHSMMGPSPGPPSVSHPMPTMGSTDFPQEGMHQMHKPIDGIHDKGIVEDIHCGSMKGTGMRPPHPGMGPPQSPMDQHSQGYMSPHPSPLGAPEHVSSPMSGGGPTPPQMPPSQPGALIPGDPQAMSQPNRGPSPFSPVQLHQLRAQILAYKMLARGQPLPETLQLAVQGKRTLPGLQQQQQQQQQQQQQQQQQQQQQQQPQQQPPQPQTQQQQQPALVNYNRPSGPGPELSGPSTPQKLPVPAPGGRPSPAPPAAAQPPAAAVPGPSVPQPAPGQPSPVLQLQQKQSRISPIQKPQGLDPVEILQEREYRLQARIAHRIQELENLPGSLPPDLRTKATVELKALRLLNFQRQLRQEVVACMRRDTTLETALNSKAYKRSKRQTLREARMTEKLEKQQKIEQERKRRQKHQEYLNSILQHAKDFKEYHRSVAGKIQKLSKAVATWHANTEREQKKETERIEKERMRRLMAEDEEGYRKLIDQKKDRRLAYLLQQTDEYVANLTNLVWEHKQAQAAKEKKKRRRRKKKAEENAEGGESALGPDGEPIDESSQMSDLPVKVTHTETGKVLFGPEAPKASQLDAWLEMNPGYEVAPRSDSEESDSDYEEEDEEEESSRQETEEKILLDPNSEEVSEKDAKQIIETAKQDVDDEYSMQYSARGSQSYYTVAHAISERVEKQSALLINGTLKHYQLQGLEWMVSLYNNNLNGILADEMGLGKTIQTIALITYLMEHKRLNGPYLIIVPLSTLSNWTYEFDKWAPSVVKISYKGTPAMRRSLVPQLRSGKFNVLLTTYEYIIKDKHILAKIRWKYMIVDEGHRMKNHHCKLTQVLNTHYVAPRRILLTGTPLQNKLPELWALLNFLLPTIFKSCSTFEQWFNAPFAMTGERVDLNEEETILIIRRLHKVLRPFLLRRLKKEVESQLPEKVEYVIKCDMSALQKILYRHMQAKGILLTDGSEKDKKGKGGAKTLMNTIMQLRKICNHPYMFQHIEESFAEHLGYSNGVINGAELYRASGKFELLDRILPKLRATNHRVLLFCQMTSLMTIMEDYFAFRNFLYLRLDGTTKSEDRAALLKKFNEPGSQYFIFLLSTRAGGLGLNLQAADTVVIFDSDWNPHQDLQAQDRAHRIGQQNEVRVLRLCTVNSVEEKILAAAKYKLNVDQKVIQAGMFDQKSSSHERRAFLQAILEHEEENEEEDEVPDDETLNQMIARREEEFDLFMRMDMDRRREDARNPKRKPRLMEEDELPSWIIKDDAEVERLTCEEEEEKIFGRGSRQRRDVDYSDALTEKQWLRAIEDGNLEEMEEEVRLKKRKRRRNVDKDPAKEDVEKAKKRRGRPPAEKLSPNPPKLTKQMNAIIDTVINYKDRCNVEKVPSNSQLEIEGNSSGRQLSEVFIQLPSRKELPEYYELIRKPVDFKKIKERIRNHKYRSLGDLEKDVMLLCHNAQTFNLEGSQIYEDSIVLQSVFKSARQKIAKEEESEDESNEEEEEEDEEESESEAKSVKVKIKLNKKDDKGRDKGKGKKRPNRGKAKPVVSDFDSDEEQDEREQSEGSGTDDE

As usually defined, the IC50 is the concentration at which inhibition is half-maximal. A low value points to greater potency. Turning to `Cc1cccc(-c2csc(NC(=O)CNC(=O)c3cccc(S(=O)(=O)N(C)C)c3)n2)c1` [Compound 1, 3-(dimethylsulfamoyl)-N-[2-[[4-(m-tolyl)thiazol-2-yl]amino]-2-oxo-ethyl]benzamide], on BRG-1, the IC50 lay in the range of 1 to 10 µM and the “BRG1 Max % Inhibition” value is recorded as above 70%. The molecule further registered a concentration for half-maximal inhibition (IC50) on BRM of 1 to 10 µM. Moreover, the “BRM Max % Inhibition” value on BRM (Table 5) is given as above 95%.
As to `CSCC[C@H](NC(=O)c1ccc(C)c(S(C)(=O)=O)c1)C(=O)Nc1nc(-c2ccccc2)cs1` [Compound 2, 4-methyl-N-[(1S)-3-methylsulfanyl-1-[(4-phenylthiazol-2-yl)carbamoyl]propyl]-3-methylsulfonyl-benzamide], the values for the IC50 at BRG-1 and at BRM were 1 to 10 µM and below 1 µM, respectively. For the same molecule, the “BRG1 Max % Inhibition” value on BRG-1 was above 95%. Also, the “BRM Max % Inhibition” value on BRM (Table 5) is given as above 95%.
`CSCC[C@H](NC(=O)c1cccc(S(C)(=O)=O)c1)C(=O)Nc1nc(-c2ccccc2)cs1` [Compound 3, (S)-3-(methylsulfonyl)-N-(4-(methylthio)-1-oxo-1-((4-phenylthiazol-2-yl)amino)butan-2-yl)benzamide]: on BRG-1, the IC50 lay in the range of 1 to 10 µM and the “BRG1 Max % Inhibition” value is recorded as above 90%. The molecule further showed an IC50 on BRM of 1 to 10 µM. The “BRM Max % Inhibition” value at BRM (Table 5) is on record as above 95%.
For `CNC(=O)c1cccc(-c2csc(NC(=O)CNC(=O)c3cccc(S(=O)(=O)N(C)C)c3)n2)c1` [Compound 4, 3-[2-[[2-[[3-(dimethylsulfamoyl)benzoyl]amino]acetyl]amino]thiazol-4-yl]-N-methyl-benzamide], the results for the IC50 against BRG-1 and against BRM were above 10 µM and 1 to 10 µM, respectively. Besides, the “BRG1 Max % Inhibition” value on BRG-1 was above 70%. Moreover, the “BRM Max % Inhibition” value on BRM (Table 5) was above 90%.
Consider `CC(=O)NCc1cccc(-c2csc(NC(=O)CNC(=O)c3cccc(S(=O)(=O)N(C)C)c3)n2)c1` [Compound 5, N-[2-[[4-[3-(acetamidomethyl)phenyl]thiazol-2-yl]amino]-2-oxo-ethyl]-3-(dimethylsulfamoyl)benzamide], for which, at BRG-1, the IC50 is above 10 µM and the “BRG1 Max % Inhibition” value was above 70%. The IC50 on BRM is above 10 µM. Also, the “BRM Max % Inhibition” value at BRM (Table 5) is listed as above 90%.
Regarding `CC(C)S(=O)(=O)c1cccc(C(=O)NCC(=O)Nc2nc(-c3ccccc3)cs2)c1` [Compound 6, 3-(isopropylsulfonyl)-N-(2-oxo-2-((4-phenylthiazol-2-yl)amino)ethyl)benzamide], the values for the IC50 against BRG-1 and against BRM were above 10 µM and 1 to 10 µM, respectively. Further, the “BRG1 Max % Inhibition” value at BRG-1 is on record as above 60%. Besides, on BRM (Table 5), the “BRM Max % Inhibition” value is above 90%.
As to `CN(C)S(=O)(=O)c1cccc(C(=O)NCC(=O)Nc2nc(-c3cccc(Br)c3)cs2)c1` [Compound 7], at BRG-1, the IC50 lay in the range of 1 to 10 µM and the “BRG1 Max % Inhibition” value was above 60%. Moreover, the IC50 against BRM fell in the range of 1 to 10 µM. For the same molecule, the “BRM Max % Inhibition” value at BRM (Table 5) was above 90%.
Consider `CN(C)S(=O)(=O)c1cccc(C(=O)NCC(=O)Nc2nc(-c3cccc(C#N)c3)cs2)c1` [Compound 8, N-[2-[[4-(3-cyanophenyl)thiazol-2-yl]amino]-2-oxo-ethyl]-3-(dimethylsulfamoyl)benzamide], for which, at BRG-1, the IC50 is above 10 µM and the “BRG1 Max % Inhibition” value is reported as above 70%. For the same molecule, the IC50 against BRM lay in the range of 1 to 10 µM. For the same molecule, the “BRM Max % Inhibition” value at BRM (Table 5) is given as above 90%.
Taken in the same sequence, the figures for `COC(=O)c1cccc(-c2csc(NC(=O)CNC(=O)c3cccc(S(=O)(=O)N(C)C)c3)n2)c1` [Compound 9, methyl 3-[2-[[2-[[3-(dimethylsulfamoyl)benzoyl]amino]acetyl]amino]thiazol-4-yl]benzoate] were below 1 µM, above 60%, below 1 µM and above 90%.
As to `CN(C)S(=O)(=O)c1cccc(C(=O)NCC(=O)Nc2nc(-c3cccc(CN)c3)cs2)c1` [Compound 10, N-[2-[[4-[3-(aminomethyl)phenyl]thiazol-2-yl]amino]-2-oxo-ethyl]-3-(dimethylsulfamoyl)benzamide], the IC50 at BRG-1 and against BRM was above 10 µM each time. The “BRG1 Max % Inhibition” value on BRG-1 is above 90%. On BRM (Table 5), the “BRM Max % Inhibition” value is reported as above 90%.
For the molecule `CC(=O)NCc1ccc(-c2csc(NC(=O)CNC(=O)c3cccc(S(=O)(=O)N(C)C)c3)n2)cc1` [Compound 11, N-[2-[[4-[4-(acetamidomethyl)phenyl]thiazol-2-yl]amino]-2-oxo-ethyl]-3-(dimethylsulfamoyl)benzamide], at BRG-1, the IC50 is above 10 µM and the “BRG1 Max % Inhibition” value is reported as above 70%. The molecule also yielded an IC50 at BRM of 1 to 10 µM. The “BRM Max % Inhibition” value at BRM (Table 5) was above 80%.
In the case of `CN(C)S(=O)(=O)c1cccc(C(=O)NCC(=O)Nc2nc(-c3ccccc3)cs2)c1` [Compound 13, 3-(dimethylsulfamoyl)-N-[2-oxo-2-[(4-phenylthiazol-2-yl)amino]ethyl]benzamide], at BRG-1, the IC50 was 1 to 10 µM and the “BRG1 Max % Inhibition” value was above 30%. Besides, at BRM, the IC50 fell in the range of 1 to 10 µM. For the same molecule, the “BRM Max % Inhibition” value on BRM (Table 5) is above 80%.
Turning to `CSCC[C@H](NC(=O)c1cccc(S(=O)(=O)C(C)C)c1)C(=O)Nc1nc(-c2ccccc2)cs1` [Compound 14, (S)-3-(isopropylsulfonyl)-N-(4-(methylthio)-1-oxo-1-((4-phenylthiazol-2-yl)amino)butan-2-yl)benzamide], the IC50 against BRG-1 is above 10 µM; on BRM it was 1 to 10 µM. Also, the “BRG1 Max % Inhibition” value on BRG-1 is above 60%. Further, the “BRM Max % Inhibition” value at BRM (Table 5) is recorded as above 80%.
`CN(C)S(=O)(=O)c1cccc(C(=O)NCC(=O)Nc2nc(-c3ccc4c(c3)OCCO4)cs2)c1` [Compound 15, N-(2-((4-(2,3-dihydrobenzo[b][1,4]dioxin-6-yl)thiazol-2-yl)amino)-2-oxoethyl)-3-(N,N-dimethylsulfamoyl)benzamide]: on BRG-1, the IC50 is 1 to 10 µM and the “BRG1 Max % Inhibition” value is above 60%. For the same molecule, the IC50 against BRM lay within 1 to 10 µM. Further, the “BRM Max % Inhibition” value at BRM (Table 5) is on record as above 80%.
As to `Cc1ccccc1-c1csc(NC(=O)CNC(=O)c2cccc(S(=O)(=O)N(C)C)c2)n1` [Compound 16, 3-(dimethylsulfamoyl)-N-[2-[[4-(o-tolyl)thiazol-2-yl]amino]-2-oxo-ethyl]benzamide], at BRG-1, the IC50 is above 10 µM and the “BRG1 Max % Inhibition” value is above 60%. At BRM, this molecule came in with an IC50 of 1 to 10 µM. In addition, on BRM (Table 5), the “BRM Max % Inhibition” value is above 80%.
In the case of `CCC[C@H](NC(=O)c1cccc(S(=O)(=O)N(C)C)c1)C(=O)Nc1nc(-c2ccccc2)cs1` [Compound 17, 3-(dimethylsulfamoyl)-N-[(1S)-1-[(4-phenylthiazol-2-yl)carbamoyl]butyl]benzamide], at BRG-1, the IC50 was above 10 µM and the “BRG1 Max % Inhibition” value was above 60%. The IC50 at BRM lay within 1 to 10 µM. For the same molecule, the “BRM Max % Inhibition” value on BRM (Table 5) is listed as above 80%.
For `CN(C)S(=O)(=O)c1cccc(C(=O)NCC(=O)Nc2nc(-c3ccccc3Br)cs2)c1` [Compound 18, N-[2-[[4-(2-bromophenyl)thiazol-2-yl]amino]-2-oxo-ethyl]-3-(dimethylsulfamoyl)benzamide], on BRG-1, the half-maximal inhibitory concentration (IC50) is above 10 µM and the “BRG1 Max % Inhibition” value was above 60%. The molecule further gave an IC50 at BRM above 10 µM. In addition, the “BRM Max % Inhibition” value at BRM (Table 5) is above 80%.
Consider `Cc1ccc(C(=O)NCC(=O)Nc2nc(-c3ccccc3)cs2)cc1S(C)(=O)=O` [Compound 19, 4-methyl-3-(methylsulfonyl)-N-(2-oxo-2-((4-phenylthiazol-2-yl)amino)ethyl)benzamide], for which, on BRG-1, the IC50 is above 10 µM and the “BRG1 Max % Inhibition” value is above 30%. Moreover, the IC50 against BRM is below 1 µM. Moreover, the “BRM Max % Inhibition” value on BRM (Table 5) was above 70%.
Consider `COc1ccc(C(=O)N[C@@H](CCSC)C(=O)Nc2nc(-c3ccccc3)cs2)cc1S(C)(=O)=O` [Compound 20, 4-methoxy-N-[(1S)-3-methylsulfanyl-1-[(4-phenylthiazol-2-yl)carbamoyl]propyl]-3-methylsulfonyl-benzamide], for which, at BRG-1, the IC50 is above 10 µM and the “BRG1 Max % Inhibition” value is recorded as above 60%. The molecule further displayed an IC50 on BRM above 10 µM. Further, the “BRM Max % Inhibition” value on BRM (Table 5) is on record as above 70%.
Regarding `CC(=O)NC[C@H](NC(=O)c1cccc(S(=O)(=O)N(C)C)c1)C(=O)Nc1nc(-c2ccccc2)cs1` [Compound 21, (S)—N-(3-acetamido-1-oxo-1-((4-phenylthiazol-2-yl)amino)propan-2-yl)-3-(N,N-dimethylsulfamoyl)benzamide], on BRG-1, the IC50 is above 10 µM and the “BRG1 Max % Inhibition” value is recorded as above 60%. This molecule yielded an IC50 on BRM above 10 µM. For the same molecule, the “BRM Max % Inhibition” value at BRM (Table 5) is recorded as above 70%.
Take `CSCC[C@H](NC(=O)c1ccc2[nH]ccc2c1)C(=O)Nc1nc(-c2ccccc2)cs1` [Compound 83, (S)—N-(4-(methylthio)-1-oxo-1-((4-phenylthiazol-2-yl)amino)butan-2-yl)-1H-indole-5-carboxamide]: the IC50 at BRM was 1 to 10 µM. Also, at BRM (Table 5), the “BRM Max % Inhibition” value is given as above 90%.
For the molecule `Cc1nnc(-c2cccc(-c3csc(NC(=O)CNC(=O)c4ccc(N)cc4)n3)c2)o1` [Compound 113, 4-amino-N-(2-((4-(3-(5-methyl-1,3,4-oxadiazol-2-yl)phenyl)thiazol-2-yl)amino)-2-oxoethyl)benzamide], the IC50 on BRM lay in the range of 0.1 to 1 µM.
Same read-out and setting: the value for `Nc1ccc(C(=O)NCC(=O)Nc2nc(-c3cccc(-c4ccncc4)c3)cs2)cc1` [Compound 117, 4-amino-N-(2-oxo-2-((4-(3-(pyridin-4-yl)phenyl)thiazol-2-yl)amino)ethyl)benzamide] was below 0.1 µM.
Consider `CSCC[C@@H](NC(=O)c1ccc(N)cc1)C(=O)Nc1nc(-c2cccc(-c3ccncc3)c2)cs1` [Compound 155, (R)-4-amino-N-(4-(methylthio)-1-oxo-1-((4-(3-(pyridin-4-yl)phenyl)thiazol-2-yl)amino)butan-2-yl)benzamide], for which the “BRM Max % Inhibition” value at BRM (Table 6) is on record as above 80%.
In turn, `Cc1cc(-c2cccc(-c3csc(NC(=O)CNC(=O)c4ccc(N)cc4)n3)c2)on1` [Compound 231, 4-amino-N-[2-[[4-[3-(3-methylisoxazol-5-yl)phenyl]thiazol-2-yl]amino]-2-oxo-ethyl]benzamide] showed an IC50 against BRM of 0.1 to 1 µM.
